Biological target: ATP-dependent translocase ABCB1 (Rattus norvegicus, UniProt P43245)
Experiment: TP_TRANSPORTER: RNase protection assay in vitro, rat hepatoma H-4-II-E cells
Type: functional, cell-based

Chain of ATP-dependent translocase ABCB1 (P43245 whole entry): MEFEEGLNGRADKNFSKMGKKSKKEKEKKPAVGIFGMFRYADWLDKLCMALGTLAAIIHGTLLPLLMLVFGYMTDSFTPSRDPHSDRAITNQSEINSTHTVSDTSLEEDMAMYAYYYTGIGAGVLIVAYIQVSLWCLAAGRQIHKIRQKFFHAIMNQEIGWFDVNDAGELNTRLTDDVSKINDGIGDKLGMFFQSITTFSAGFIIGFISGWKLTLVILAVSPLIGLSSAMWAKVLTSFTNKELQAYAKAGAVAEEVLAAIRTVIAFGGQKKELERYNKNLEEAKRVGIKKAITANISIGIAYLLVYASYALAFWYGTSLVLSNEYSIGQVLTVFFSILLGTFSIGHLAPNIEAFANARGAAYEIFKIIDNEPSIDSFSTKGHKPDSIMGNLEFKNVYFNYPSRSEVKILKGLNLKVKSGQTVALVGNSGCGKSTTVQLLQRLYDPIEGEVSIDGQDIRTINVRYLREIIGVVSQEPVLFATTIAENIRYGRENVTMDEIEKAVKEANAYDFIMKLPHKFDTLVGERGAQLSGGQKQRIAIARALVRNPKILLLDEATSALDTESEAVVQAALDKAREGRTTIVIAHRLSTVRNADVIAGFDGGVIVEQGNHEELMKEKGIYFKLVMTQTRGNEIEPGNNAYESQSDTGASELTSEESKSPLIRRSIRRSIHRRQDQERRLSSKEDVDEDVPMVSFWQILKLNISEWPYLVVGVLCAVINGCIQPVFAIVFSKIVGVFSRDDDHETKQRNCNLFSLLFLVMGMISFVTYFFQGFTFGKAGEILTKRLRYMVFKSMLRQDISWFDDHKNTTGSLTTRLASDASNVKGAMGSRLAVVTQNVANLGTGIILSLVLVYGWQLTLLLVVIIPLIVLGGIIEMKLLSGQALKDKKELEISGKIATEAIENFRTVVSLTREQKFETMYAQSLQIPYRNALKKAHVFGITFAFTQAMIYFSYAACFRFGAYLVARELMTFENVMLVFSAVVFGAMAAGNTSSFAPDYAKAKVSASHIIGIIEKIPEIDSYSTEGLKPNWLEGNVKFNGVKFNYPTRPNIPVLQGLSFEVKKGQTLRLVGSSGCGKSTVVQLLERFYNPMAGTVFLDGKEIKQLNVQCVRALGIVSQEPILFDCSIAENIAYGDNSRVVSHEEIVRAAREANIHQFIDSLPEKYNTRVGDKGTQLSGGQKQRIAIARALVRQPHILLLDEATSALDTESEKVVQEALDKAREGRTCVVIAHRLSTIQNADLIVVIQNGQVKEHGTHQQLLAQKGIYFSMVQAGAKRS

COc1cccc2c1C(=O)c1c(O)c3c(c(O)c1C2=O)C[C@@](O)(C(C)=O)C[C@@H]3O[C@H]1C[C@H](N)[C@H](O)[C@H](C)O1 [DAUNORUBICIN]
Activity: inducer [+]
